This is an account of results in patent US20200029564A1, “NOVEL 5-SUBSTITUTED IMIDAZOLYLMETHYLOXIRANE DERIVATIVES” (Bayer CropScience Aktiengesellschaft, priority 2016, published 2020).

By chromatographic logP is commonly meant lipophilicity estimated from chromatographic retention. Low values mean a more hydrophilic compound, high ones a more lipophilic compound.

In data set [1] the test system is Septoria tritici. Put plainly: In vivo preventive test on Septoria tritici (leaf spot on wheat). Conditions: Zymoseptoria tritici, 576 h; 500 ppm of active ingredient; preventive spray on young wheat plants; evaluated 24 days after inoculation; read-out: efficacy. How it is done: Example B: In Vivo Preventive Test on Septoria tritici (Leaf Spot on Wheat) [table] The active ingredients are made soluble and homogenized in a mixture of Dimethyl sulfoxide/Acetone/Tween® 80 and then diluted in water to the desired concentration. The young plants of wheat are treated by spraying the active ingredient prepared as described above. Control plants are treated only with an aqueous solution of Acetone/Dimethyl sulfoxide/Tween® 80. After 24 hours, the plants are contaminated by spraying the leaves with an aqueous suspension of Septoria tritici spores. The contaminated wheat plants are incubated for 72 hours at 18° C. and at 100% relative humidity and then for 21 days at 20° C. and at 90% relative humidity. The test is evaluated 24 days after the inoculation. 0% means an efficacy which corresponds to that of the control plants while an efficacy of 100% means that no disease is observed.

The test system of data set [2] is Uromyces appendiculatus. The data set can be described thus: In vivo preventive test on Uromyces appendiculatus (bean rust). Conditions: 264 h, 500 ppm of active ingredient, preventive spray on young bean plants, evaluated 11 days after inoculation, read-out: efficacy. How it is done:
(§1) Example D: In Vivo Preventive Test on Uromyces appendiculatus (Bean Rust) [table] The active ingredients are made soluble and homogenized in a mixture of Dimethyl sulfoxide/Acetone/Tween® 80 and then diluted in water to the desired concentration. The young plants of bean are treated by spraying the active ingredient prepared as described above. Control plants are treated only with an aqueous solution of Acetone/Dimethyl sulfoxide/Tween® 80. After 24 hours, the plants are contaminated by spraying the leaves with an aqueous suspension of Uromyces appendiculatus spores. The contaminated bean plants are incubated for 24 hours at 20° C. and at 100% relative humidity and then for 10 days at 20° C. and at 70-80% relative humidity. The test is evaluated 11 days after the inoculation. 0% means an efficacy which corresponds to that of the control plants while an efficacy of 100% means that no disease is observed.

Data set [3] concerns Sphaerotheca fuliginea. The data set can be described thus: In vivo preventive test on Sphaerotheca fuliginea (powdery mildew on cucurbits). Conditions: Podosphaera fuliginea, 360 h; 500 ppm of active ingredient; preventive spray on young gherkin plants; evaluated 15 days after inoculation; read-out: efficacy. The procedure: Example C: In Vivo Preventive Test on Sphaerotheca fuliginea (Powdery Mildew on Cucurbits) [table] The active ingredients are made soluble and homogenized in a mixture of Dimethyl sulfoxide/Acetone/Tween® 80 and then diluted in water to the desired concentration. The young plants of gherkin are treated by spraying the active ingredient prepared as described above. Control plants are treated only with an aqueous solution of Acetone/Dimethyl sulfoxide/Tween® 80. After 24 hours, the plants are contaminated by spraying the leaves with an aqueous suspension of Sphaerotheca fuidiginea spores. The contaminated gherkin plants are incubated for 72 hours at 18° C. and at 100% relative humidity and then for 12 days at 20° C. and at 70-80% relative humidity. The test is evaluated 15 days after the inoculation. 0% means an efficacy which corresponds to that of the control plants while an efficacy of 100% means that no disease is observed.

The subject of data set [4] is Puccinia recondita. The data set can be described thus: In vivo preventive test on Puccinia recondita (brown rust on wheat). Conditions: 264 h, 500 ppm of active ingredient, preventive spray on young wheat plants, evaluated 11 days after inoculation, read-out: efficacy. The procedure:
as §1, with “A:” for “D:”, “Puccinia recondita (Brown Rust on Wheat)” for “Uromyces appendiculatus (Bean Rust)”, “wheat” for “bean”, “Puccinia recondita” for “Uromyces appendiculatus”

In data set [5] the test system is Blumeria graminis fsp. hordei. The data set can be described thus: In vivo preventive Blumeria test (barley). Conditions: 168 h, 500 ppm of active ingredient, preventive spray on young barley plants, evaluated 7 days after inoculation, read-out: efficacy. The procedure: Example F: In Vivo Preventive Blumeria Test (Barley) [table] To produce a suitable preparation of active compound, 1 part by weight of active compound or active compound combination is mixed with the stated amounts of solvent and emulsifier, and the concentrate is diluted with water to the desired concentration. To test for preventive activity, young plants are sprayed with the preparation of active compound or active compound combination at the stated rate of application. After the spray coating has been dried, the plants are dusted with spores of Blumeria graminis fsp. hordei. The plants are placed in the greenhouse at a temperature of approximately 18° C. and a relative atmospheric humidity of approximately 80% to promote the development of mildew pustules. The test is evaluated 7 days after the inoculation. 0% means an efficacy which corresponds to that of the untreated control, while an efficacy of 100% means that no disease is observed.

Data set [6] in a line: LogP by HPLC on reversed phase columns (EEC directive 79/831 Annex V.A8). The conditions noted are these: reversed phase HPLC column, method [a]: LC-UV, acidic range, 0.1% formic acid in water and acetonitrile as eluent. Format: physicochemical. The procedure:
[table] If more than one Log P value is available within the same method, all the values are given and separated by “+”. Calibration was done with straight-chain alkan2-ones (with 3 to 16 carbon atoms) with known Log P values (measurement of Log P values using retention times with linear interpolation between successive alkanones). Lambda-max-values were determined using UV-spectra from 200 nm to 400 nm and the peak values of the chromatographic signals.

As for `N#Cc1cncn1CC1(c2ccc(C(F)(F)F)cc2)OC1c1ccccc1Cl` (stereo not drawn) [I-05], the pest or weed control at 500 ppm in data set [1], in data set [2], in data set [3], in data set [4] and in data set [5] was 90 to 100% throughout. This compound gave a chromatographic logP in data set [6] of 3.96.

As to `N#Cc1cncn1CC1(c2ccc(Cl)cc2F)OC1c1ccccc1Cl` (stereo not drawn) [I-25], the pest or weed control at 500 ppm in data set [1], in data set [2], in data set [3], in data set [4] and in data set [5] was 90 to 100% throughout. The compound also returned a chromatographic logP in data set [6] of 3.8.

Take `Fc1ccc(C2(Cn3cncc3Cl)OC2c2ccccc2Cl)cc1` (stereo not drawn) [I-01]: the pest or weed control at 500 ppm in data set [1], in data set [2], in data set [3], in data set [4] and in data set [5] was 90 to 100% each time. Also, in data set [6], the chromatographic logP was found to be 3.19.

For `N#Cc1cncn1CC1(c2ccc(OC(F)(F)F)cc2)OC1c1ccccc1Cl` (stereo not drawn) [I-07], the pest or weed control at 500 ppm in data set [1], in data set [2], in data set [3], in data set [4] and in data set [5] was 90 to 100% in each case. The chromatographic logP in data set [6] was determined as 4.11.

For `N#Cc1cncn1CC1(c2ccc(F)cc2)OC1c1ccccc1F` (stereo not drawn) [I-12], the pest or weed control at 500 ppm in data set [1], in data set [2], in data set [3], in data set [4] and in data set [5] was 90 to 100% throughout. In data set [6], this compound came in with a chromatographic logP of 3.06.
